Data taken from paper PMC5522529, “Mechanisms of Paradoxical Activation of AMPK by the Kinase Inhibitors SU6656 and Sorafenib” (Cell Chemical Biology, 2017).

Columns and labels:
[1] = tested on: LKB1 versus AMPK; design: method as in MRC Kinase Inhibitor Database; conditions: ref MRC Kinase Inhibitor Database; cited from earlier work
[2] = molecular target: T1, α1 kinase domain (α1-KD, residues 1–312) (Homo sapiens, UniProt Q13131); test: Activity of FLAG-tagged α1 kinase domain expressed in HEK293 cells; format: cell-based; conditions: 1 hr
T1 construct: amplifying residues 1-312 with an N-terminal FLAG-tag; expressed in transfected cells; host or cells: HEK293 (transient transfection, pcDNA5 FRT)
From the text: (§1) We next expressed an FLAG-tagged α1 kinase domain (α1-KD, residues 1–312) by transient transfection in HEK293 cells, treated the cells with various AMPK activators, and then assayed both the expressed α1-KD (precipitated using anti-FLAG) and endogenous full-length α1 complexes (precipitated using anti-α1 antibodies recognizing an epitope outside the α1-KD). […] This was also observed with A23187, as expected since this ionophore increases intracellular Ca^2+ and activates the alternate upstream kinase CaMKK2.
(§2) The α1-KD was precipitated using anti-FLAG and endogenous AMPK complexes using anti-α1 antibody, and activity determined. Results (mean ± SD, n = 2) are expressed relative to activities in DMSO controls. (B) Western blots (n = 2) using the indicated antibodies; samples from experiment in (A). (C) DNAs encoding FLAG-tagged AMPK-α1 (WT or AT mutant) were expressed by transient transfection in HEK293 cells, the cells treated with increasing concentrations of SU6656 for 1 hr, AMPK complexes precipitated with anti-FLAG, and activity measured. Results (mean ± SD, n = 3) are expressed relative to the DMSO control. […] Results (mean ± SD, n = 3) are expressed relative to the DMSO control. **p < 0.01, ***p < 0.001, ****p < 0.0001, ^†††p < 0.001; ns, not significant.
A plasmid encoding the AMPK-α2 kinase domain (α2-KD) was made by amplifying residues 1-310 with 5' BamH1 and 3' Xho1 sites, the resulting PCR product was cloned into pGEX6P2. Point mutations were generated using the Quikchange II site-directed mutagenesis kit (Stratagene) and confirmed by DNA sequencing.

[3] = molecular target: T2, endogenous full-length α1 complexes (Homo sapiens, UniProt Q13131); test: Activity of endogenous full-length α1 complexes in HEK293 cells; format: cell-based; conditions: 1 hr
T2 construct: endogenous in cells
From the text: as §1, §2

[4] = molecular target: T3, AMPK-α1 AT mutant (Homo sapiens, UniProt Q13131, A167T); test: AMPK activity of FLAG-tagged AMPK-α1 AT mutant expressed in HEK293 cells; format: cell-based; conditions: AT mutant FLAG-α1, 1 hr
T3 construct: we expressed FLAG-tagged full-length AMPK-α1 either as the WT or the AT mutant; expressed in transfected cells; host or cells: HEK293 (transient transfection)
From the text: as §2
To confirm that it acted by binding at the catalytic site, we expressed FLAG-tagged full-length AMPK-α1 either as the WT or the AT mutant.

[5] = molecular target: T4, AMPK-α1 AA mutant (Homo sapiens, UniProt Q13131, K40A/K42A); test: AMPK activity of FLAG-tagged AMPK-α1 K40A/K42A (AA) mutant expressed in HEK293 cells; format: cell-based; conditions: AA mutant FLAG-α1; same concentrations, 1 hr
T4 construct: Plasmid encoding full-length human AMPK-α1; expressed in transfected cells; host or cells: HEK293
From the text: (§3) (B) Western blotting of the same preparations as in (A). […] (D) Allosteric activation of WT and mutant α1β1γ1 complexes by MT 63-78, curve fitting as for (C). […] (E) Allosteric activation of WT and mutant α1β1γ1 complexes by AMP. Data were fitted to the equation for activation/inactivation by AMP ([Gowans et al., 2013]). […] (F) Activation of WT and AA mutant by various AMPK activators in HEK293 cells. […] FLAG-tagged complexes were isolated by immunoprecipitation and AMPK activity determined (mean ± SEM, n = 2).
(§4) We next expressed the FLAG-tagged WT or AA mutant of AMPK-α1 by transient transfection in HEK293 cells, treated with various agents, and measured AMPK activity in anti-FLAG immunoprecipitates. In Figure 4F, the results are expressed as absolute activities and are accompanied by blots showing Thr172 phosphorylation.

[6] = molecular target: T5, AMPK-α1 (WT) (Homo sapiens, UniProt Q13131); test: AMPK activity of FLAG-tagged AMPK-α1 (WT) expressed in HEK293 cells; format: cell-based; conditions: 1 hr
T5 construct: we expressed FLAG-tagged full-length AMPK-α1 either as the WT or the AT mutant; expressed in transfected cells; host or cells: HEK293
From the text: as §3, §4
The α1-KD was precipitated using anti-FLAG and endogenous AMPK complexes using anti-α1 antibody, and activity determined. […] (B) Western blots (n = 2) using the indicated antibodies; samples from experiment in (A). (C) DNAs encoding FLAG-tagged AMPK-α1 (WT or AT mutant) were expressed by transient transfection in HEK293 cells, the cells treated with increasing concentrations of SU6656 for 1 hr, AMPK complexes precipitated with anti-FLAG, and activity measured.

[7] = molecular target: human AMPK-α2 (WT) (Homo sapiens, UniProt P54646); test: AMPK activity of FLAG-tagged WT AMPK-α2 expressed in HEK293 cells; format: cell-based; conditions: SU6656 100 μM, phenformin 10 mM, A23187 10 μM, 1 hr
Method: (§5) Top: AMPK activity (mean ± SEM, n = 4); bottom: western blots showing phosphorylation of Thr172 on AMPK, and of ERK1/2, in cells treated with DMSO (control), SU6656 (100 μM), or PP2 (100 nM) (n = 2). (B) As (A), but in SYF cells. (C) HeLa cells were transfected with DNAs encoding GFP alone, or GFP fused to WT, Y261F/Y365F (FF), or Y36F/Y261F/Y365F (FFF) mutants of LKB1; cells were treated with increasing concentrations of SU6656 for 1 hr and AMPK activity determined (mean ± SEM, n = 4). See also Figure S1. (D) HEK293 cells were transfected with DNAs encoding FLAG-tagged AMPK-α2 with or without a Y436F mutation. Cells were incubated with DMSO (control), 100 μM SU6656, 10 mM phenformin, or 10 μM A23187 for 1 hr; AMPK complexes were immunoprecipitated using anti-FLAG antibody and assayed. The top panels show kinase activities (mean ± SD, n = 3); the bottom panels show blots from the same experiment (n = 2). In all panels, asterisks indicate significant differences from DMSO controls; in (D), there were no significant differences between the WT and Y463F mutant. **p < 0.01, ****p < 0.0001.

[8] = molecular target: T6, human AMPK-α2 Y436F mutant (Homo sapiens, UniProt P54646, Y436F); test: AMPK activity of FLAG-tagged Y436F AMPK-α2 expressed in HEK293 cells; format: cell-based; conditions: SU6656 100 μM, phenformin 10 mM, A23187 10 μM, 1 hr
T6 construct: expressed in transfected cells; host or cells: HEK293 (transient transfection)
Method: as §5

T5 sequence (Q13131 whole entry): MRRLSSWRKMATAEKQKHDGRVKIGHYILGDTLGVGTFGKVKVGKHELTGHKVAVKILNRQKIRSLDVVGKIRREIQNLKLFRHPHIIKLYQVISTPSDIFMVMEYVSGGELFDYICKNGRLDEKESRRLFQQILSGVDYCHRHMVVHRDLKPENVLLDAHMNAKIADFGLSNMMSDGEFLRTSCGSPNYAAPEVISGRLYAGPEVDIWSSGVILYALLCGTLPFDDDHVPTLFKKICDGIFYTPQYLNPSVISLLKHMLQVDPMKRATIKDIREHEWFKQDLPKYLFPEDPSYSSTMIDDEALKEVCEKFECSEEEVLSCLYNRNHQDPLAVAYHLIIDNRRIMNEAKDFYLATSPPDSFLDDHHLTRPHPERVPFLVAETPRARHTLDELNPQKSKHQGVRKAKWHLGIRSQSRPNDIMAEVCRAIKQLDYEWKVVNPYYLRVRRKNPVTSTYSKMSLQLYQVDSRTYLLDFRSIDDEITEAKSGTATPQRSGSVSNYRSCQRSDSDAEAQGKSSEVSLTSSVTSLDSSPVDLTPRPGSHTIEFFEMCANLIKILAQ
T5 sequence (P54619 whole entry partner): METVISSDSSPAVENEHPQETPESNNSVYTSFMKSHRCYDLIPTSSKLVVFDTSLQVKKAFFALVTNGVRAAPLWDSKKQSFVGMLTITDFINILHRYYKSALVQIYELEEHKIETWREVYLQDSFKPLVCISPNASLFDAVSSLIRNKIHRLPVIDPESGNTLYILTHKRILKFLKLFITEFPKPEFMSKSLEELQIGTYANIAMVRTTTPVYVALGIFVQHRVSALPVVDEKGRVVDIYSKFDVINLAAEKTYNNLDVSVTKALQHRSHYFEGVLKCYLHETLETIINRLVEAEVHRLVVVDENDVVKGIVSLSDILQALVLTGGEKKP
T3 sequence (Q13131 whole entry A167T): as the sequence (Q13131 whole entry) above, with A167T counted along it
T3 sequence (P54619 whole entry partner): as the sequence (P54619 whole entry partner) above
T4 sequence (Q13131 whole entry K40A/K42A): as the sequence (Q13131 whole entry) above, with K40A, K42A counted along it
T4 sequence (P54619 whole entry partner): as the sequence (P54619 whole entry partner) above
human AMPK-α2 (WT), sequence (P54646 whole entry, the tested form may be a part): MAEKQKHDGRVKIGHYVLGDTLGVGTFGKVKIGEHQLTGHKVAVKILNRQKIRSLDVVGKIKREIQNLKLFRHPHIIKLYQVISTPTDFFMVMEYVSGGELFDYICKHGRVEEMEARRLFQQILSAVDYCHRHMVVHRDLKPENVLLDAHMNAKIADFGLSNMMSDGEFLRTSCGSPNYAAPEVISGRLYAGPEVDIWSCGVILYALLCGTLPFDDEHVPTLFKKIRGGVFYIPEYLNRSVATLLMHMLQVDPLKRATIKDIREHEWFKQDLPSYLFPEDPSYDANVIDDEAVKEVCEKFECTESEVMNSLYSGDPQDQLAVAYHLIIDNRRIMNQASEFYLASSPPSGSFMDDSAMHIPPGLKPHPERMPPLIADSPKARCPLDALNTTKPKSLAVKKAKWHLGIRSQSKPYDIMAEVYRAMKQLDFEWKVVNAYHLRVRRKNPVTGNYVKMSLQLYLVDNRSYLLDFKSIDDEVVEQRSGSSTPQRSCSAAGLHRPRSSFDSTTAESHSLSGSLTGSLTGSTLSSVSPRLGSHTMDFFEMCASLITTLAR
human AMPK-α2 (WT), sequence (P54619 whole entry partner, the tested form may be a part): as the sequence (P54619 whole entry partner) above
T6 sequence (P54646 whole entry Y436F): as the sequence (P54646 whole entry, the tested form may be a part) above, with Y436F counted along it
T6 sequence (P54619 whole entry partner): as the sequence (P54619 whole entry partner) above
T1 sequence (Q13131 1-312): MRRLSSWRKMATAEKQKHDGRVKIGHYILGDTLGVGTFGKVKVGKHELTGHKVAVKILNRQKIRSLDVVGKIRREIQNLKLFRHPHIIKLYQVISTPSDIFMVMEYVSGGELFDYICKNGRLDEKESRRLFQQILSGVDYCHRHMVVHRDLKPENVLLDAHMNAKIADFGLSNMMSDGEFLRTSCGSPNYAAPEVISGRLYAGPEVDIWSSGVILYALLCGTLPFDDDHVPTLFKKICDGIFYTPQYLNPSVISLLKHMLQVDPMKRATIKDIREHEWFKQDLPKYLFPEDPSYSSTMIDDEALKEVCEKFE
T2 sequence (Q13131 whole entry): as the sequence (Q13131 whole entry) above
T2 sequence (P54619 whole entry partner): as the sequence (P54619 whole entry partner) above

## c1cc(-c2cnn3cc(-c4ccc(OCCN5CCCCC5)cc4)cnc23)ccn1 [compound C]
[1]
  potency of LKB1 inhibition relative to AMPK inhibition: inhibit LKB1 with similar potency to AMPK

## [H]/N=C(/N)N/C(=N/[H])NCCc1ccccc1 [phenformin]
[2]
  kinase activity / Thr172 phosphorylation: failed to activate or cause Thr172 phosphorylation
[3]
  kinase activity / Thr172 phosphorylation: doing this with the endogenous complexes
[4]
  AMPK activity: activated equally well
[5]
  effect of AA mutation on AMPK activation: abolished
[6]; WT FLAG-α1 (comparison with AT mutant)
  AMPK activity: activated equally well
[6]; WT FLAG-α1, A769662 300 μM, berberine 300 μM, phenformin 10 mM, troglitazone 100 μM, oligomycin 1 μM, SU6656 100 μM
  AMPK activity and Thr172 phosphorylation: activated AMPK and caused Thr172 phosphorylation
[7]
  AMPK activity in anti-FLAG immunoprecipitates: all activated AMPK
[8]
  AMPK activation response with Y436F mutation: unaffected by the Y436F mutation
